Measured values published in patent US4605641A, “Synthetic vasoactive intestinal peptide analogs” (Hoffmann-La Roche Inc., priority 1984, dated 1986).
Peptide text beside a SMILES is read from it.

What was measured:
[1] = system: guinea pig trachea smooth muscle; assay: Bronchodilator (relaxant) effect on isolated guinea pig tracheal rings; assay type: cell-based; settings: for Relative Potency: guinea pig trachea, relative to VIP = 100%; for EC50: guinea pig tracheal rings, relaxation as % of maximum response to VIP 10^-6 M, three tissues pooled, linear regression, read-out: EC50 (M), agonist activity, bronchodilator effect
Text: The bronchodilatory effect of VIP analogs was studied in a model utilizing guinea pig trachea. Wasserman, M. A. et al. "Comparative In Vitro Tracheal Relaxant Effects of Porcine and Hen VIP" in Vasoactive Intestinal Peptide ed. Said, S.I., Raven Press (New York, 1982).
All tissues were taken from male albino guinea pigs weighing 400-600 g, anesthetized with urethane 2 g/kg i.p. After exsanguination the trachea was removed and divided into four ring segments (3 mm length). Each ring was suspended by two 30 guage stainless steel wires in a 10 ml jacket tissue bath and attached via 4-0 silk thread to a Grass force displacement transducer (model FT03C, Grass Instrument Co., Quincy, MA), for isometric recording of tension. The smooth muscle was bathed in modified Krebs solution of the following composition: NaCl, 120 mM; KCl, 4.7 mM; CaCl2, 2.5 mM; MgSO4.7H2 O; 1.2 mM; NaHCO3, 25 mM; KH2 PO4 monobasic, 1.2 mM; and dextrose, 10 mM. Tissue baths were maintained at 37.5° C. and constantly bubbled with 95% O2 and 5% CO2. Responses were recorded on an 8 channel and 4 channel Hewlett-Packard (model 7702B and 7754A, respectively) recorder (Hewlett Packard, Paramus, NJ). Tracheal rings were placed under a resting tension of 1.5 g which was determined to be at or near optimal in preliminary experiments. Frequent readjustments of tension were required during the 60 min. stabilization period which followed. Tissues were rinsed at 15 min. intervals.
(§1) Cumulative concentration response curves were obtained for each tissue by successive […] in the bath concentration of VIP or potential VIP agonists according to the method of VanRossum J. M., Arch. Int Pharmacodyn, 143, 299-330 (1963). Only one cummulative dose response curve was obtained on a single piece of tissue. To minimize variability between tissues, relaxant responses are expressed as a percentage of the maximum response obtainable to VIP (10^-6 M=100%) added at the end of the concentration response curve. Responses obtained from three tissues were pooled and EC50 values were determined by linear regression.

[2] = system: Human Bronchial Smooth Muscle; assay: Relaxation of isolated human bronchial smooth muscle rings; assay type: cell-based; settings: human bronchial smooth muscle; relative to VIP (1-28) = 100%
Description: Human bronchial smooth muscle or intra-pulmonary arteries were obtained from surgical section or autopsy from Overlook Hospital, Summit, N.J. Airway or vascular rings were suspended by two 30 gauge stainless steel wires in a 10 ml jacket tissue bath and attached via 4-0 silk thread to a Grass forcer displacement transducer (model FT030C, Grass Instrument Co., Quincy, MA), for isometric recording of tension. The smooth muscle was bathed in modified Kreb's solution of the following composition: NaCl, 120 mM; KCl, 4.7 mM; CaCL2, 2.5 mM; MgSO4.7H2 O; 1.2 mM; NaHCO3, 25 mM; KH2 PO4 monobasic, 1.2 mM; and dextrose, 10 mM. Tissue baths were maintained at 37.5° C. and constantly bubbled with 95% O2 and 5% CO2. Responses were recorded on a 8 channel and 4 channel Hewlett-Packard (model 7702B and 7754A, respectively) recorder (Hewlett Packard, Paramus, NJ). All tissues were placed under a resting tension (airway, 1.5 g; vascular, 1 g) which was determined to be near optimal in preliminary experiments. Frequent readjustments of tension were required during the 120-180 min. stabilization period which followed. Tissues were rinsed at 15 min. intervals. Vascular tissues were primed once with phenylephrine (10^-5 M) and washed for an additional hour. Steady state contractions of vacular tissues were obtained with phenylephrine (10^-5 M) while airway tissues were precontracted with histamine (3×10^-4 M).
as §1, with “noted above.” for “J. M., Arch. Int Pharmacodyn, 143, 299-330 (1963).”, “cumulative” for “cummulative”, “were” for “are”, “papaverine (vascular, 10^-4 M=100%) or isoproterenol (airway, 10^-4” for “VIP (10^-6”, “curve. […]” for “curve.”, “four” for “three”

EC50 [1] [M] | Compound | Relative Potency [1] [%] | Rel. Potency [2] [%]
5e-09 | CCCC[C@H](NC(=O)[C@H](CCC(N)=O)NC(=O)[C@H](CCCCN)NC(=O)[C@H](CCCNC(=N)N)NC(=O)[C@H](CC(C)C)NC(=O)[C@H](CCCN)NC(=O)[C@@H](NC(=O)[C@H](Cc1ccc(O)cc1)NC(=O)[C@H](CC(N)=O)NC(=O)[C@H](CC(=O)O)NC(=O)[C@@H](NC(=O)[C@H](Cc1ccccc1)NC(=O)[C@@H](NC(=O)[C@H](C)NC(=O)[C@H](CC(=O)O)NC(=O)[C@H](CO)NC(=O)[C@@H](N)Cc1c[nH]cn1)C(C)C)[C@@H](C)O)[C@@H](C)O)C(=O)N[C@@H](C)C(=O)N[C@H](C(=O)N[C@@H](CCCCN)C(=O)N[C@@H](CCCCN)C(=O)N[C@@H](Cc1ccc(O)cc1)C(=O)N[C@@H](CC(C)C)C(=O)N[C@@H](CC(N)=O)C(=O)N[C@@H](CO)C(=O)N[C@H](C(=O)N[C@@H](CC(C)C)C(=O)N[C@@H](CC(N)=O)C(N)=O)[C@@H](C)CC)C(C)C [(Orn^12, Nle^17)--VIP, (Orn^12, Nle^17)VIP] | 200 | 195
4.8e-09 | CCCC[C@H](NC(=O)[C@H](CCC(N)=O)NC(=O)[C@H](CCCCN)NC(=O)[C@H](CCCNC(=N)N)NC(=O)[C@H](CC(C)C)NC(=O)[C@H](CCCNC(=N)N)NC(=O)[C@@H](NC(=O)[C@H](Cc1ccc(O)cc1)NC(=O)[C@H](CC(N)=O)NC(=O)[C@H](CC(=O)O)NC(=O)[C@@H](NC(=O)[C@H](Cc1ccccc1)NC(=O)[C@@H](NC(=O)[C@H](C)NC(=O)[C@H](CC(=O)O)NC(=O)[C@H](CO)NC(=O)[C@@H](N)Cc1c[nH]cn1)C(C)C)[C@@H](C)O)[C@@H](C)O)C(=O)N[C@@H](C)C(=O)N[C@H](C(=O)N[C@@H](CCCCN)C(=O)N[C@@H](CCCCN)C(=O)N[C@@H](Cc1ccc(O)cc1)C(=O)N[C@@H](CC(C)C)C(=O)N[C@@H](CC(N)=O)C(=O)N[C@@H](CO)C(=O)N[C@H](C(=O)N[C@@H](CC(C)C)C(=O)N[C@H](C(N)=O)[C@@H](C)O)C(C)C)C(C)C [(Nle^17, Val^26, Thr^28)--VIP, (Nle^17, Val^26, Thr^28)VIP] (HELM PEPTIDE1{H.S.D.A.V.F.T.D.N.Y.T.R.L.R.K.Q.[Nle].A.V.K.K.Y.L.N.S.V.L.T.[am]}$$$$V2.0) | 208 | 
9.9e-09 | CCCC[C@H](NC(=O)[C@H](CCC(N)=O)NC(=O)[C@H](CCCCN)NC(=O)[C@H](CCCNC(=N)N)NC(=O)[C@H](CC(C)C)NC(=O)[C@H](CCCNC(=N)N)NC(=O)[C@@H](NC(=O)[C@H](Cc1ccc(O)cc1)NC(=O)[C@H](CC(N)=O)NC(=O)[C@H](CC(=O)O)NC(=O)[C@@H](NC(=O)[C@H](Cc1ccccc1)NC(=O)[C@@H](NC(=O)[C@H](C)NC(=O)[C@H](CC(=O)O)NC(=O)[C@H](CO)NC(=O)[C@@H](N)Cc1c[nH]cn1)C(C)C)[C@@H](C)O)[C@@H](C)O)C(=O)N[C@@H](C)C(=O)N[C@H](C(=O)N[C@@H](CCCCN)C(=O)N[C@@H](CCCCN)C(=O)N[C@@H](Cc1ccc(O)cc1)C(=O)N[C@@H](CC(C)C)C(=O)N[C@@H](CC(N)=O)C(=O)N[C@H](C(=O)N[C@H](C(=O)N[C@@H](CC(C)C)C(=O)N[C@@H](CC(N)=O)C(N)=O)[C@@H](C)CC)[C@@H](C)O)C(C)C [(Nle^17, Thr^25)--VIP, (Nle^17, Thr^25)VIP] (HELM PEPTIDE1{H.S.D.A.V.F.T.D.N.Y.T.R.L.R.K.Q.[Nle].A.V.K.K.Y.L.N.T.I.L.N.[am]}$$$$V2.0) | 101 | 

More lines, now with the values behind:

Compound | EC50 [1] [M] | Relative Potency [1] [%] | Rel. Potency [2] [%]
CCCC[C@H](NC(=O)[C@H](CCC(N)=O)NC(=O)[C@H](CCCCN)NC(=O)[C@H](CCCNC(=N)N)NC(=O)[C@H](CC(C)C)NC(=O)[C@H](CCCNC(=N)N)NC(=O)[C@@H](NC(=O)[C@H](Cc1ccc(O)cc1)NC(=O)[C@H](CC(N)=O)NC(=O)[C@H](CC(=O)O)NC(=O)[C@@H](NC(=O)[C@H](Cc1ccccc1)NC(=O)[C@@H](NC(=O)[C@H](C)NC(=O)[C@H](CC(=O)O)NC(=O)[C@H](CO)NC(=O)[C@@H](N)Cc1c[nH]cn1)C(C)C)[C@@H](C)O)[C@@H](C)O)C(=O)N[C@@H](C)C(=O)N[C@H](C(=O)N[C@@H](CCCCN)C(=O)N[C@@H](CCCCN)C(=O)N[C@@H](Cc1ccc(O)cc1)C(=O)N[C@@H](CC(C)C)C(=O)N[C@@H](CC(N)=O)C(=O)N[C@@H](CO)C(=O)N[C@H](C(=O)N[C@@H](CC(C)C)C(=O)N[C@@H](CC(N)=O)C(N)=O)[C@@H](C)CC)C(C)C [(Nle^17)--VIP, (Nle^17)VIP] | 6.4e-09 | 156 | 215
CCCC[C@H](NC(=O)[C@H](CCC(N)=O)NC(=O)[C@H](CCCCN)NC(=O)[C@H](CCCNC(=N)N)NC(=O)[C@H](CC(C)C)NC(=O)[C@H](CCCCN)NC(=O)[C@@H](NC(=O)[C@H](Cc1ccc(O)cc1)NC(=O)[C@H](CC(N)=O)NC(=O)[C@H](CC(=O)O)NC(=O)[C@@H](NC(=O)[C@H](Cc1ccccc1)NC(=O)[C@@H](NC(=O)[C@H](C)NC(=O)[C@H](CC(=O)O)NC(=O)[C@H](CO)NC(=O)[C@@H](N)Cc1c[nH]cn1)C(C)C)[C@@H](C)O)[C@@H](C)O)C(=O)N[C@@H](C)C(=O)N[C@H](C(=O)N[C@@H](CCCCN)C(=O)N[C@@H](CCCCN)C(=O)N[C@@H](Cc1ccc(O)cc1)C(=O)N[C@@H](CC(C)C)C(=O)N[C@@H](CC(N)=O)C(=O)N[C@@H](CO)C(=O)N[C@H](C(=O)N[C@@H](CC(C)C)C(=O)N[C@@H](CC(N)=O)C(N)=O)[C@@H](C)CC)C(C)C [(Lys^12, Nle^17)--VIP, (Lys^12, Nle^17)-VIP] (HELM PEPTIDE1{H.S.D.A.V.F.T.D.N.Y.T.K.L.R.K.Q.[Nle].A.V.K.K.Y.L.N.S.I.L.N.[am]}$$$$V2.0) | 3.8e-09 | 263 | 165
CCCC[C@H](NC(=O)[C@H](CCC(N)=O)NC(=O)[C@H](CCCCN)NC(=O)[C@H](CCCCN)NC(=O)[C@H](CC(C)C)NC(=O)[C@H](CCCCN)NC(=O)[C@@H](NC(=O)[C@H](Cc1ccc(O)cc1)NC(=O)[C@H](CC(N)=O)NC(=O)[C@H](CC(=O)O)NC(=O)[C@@H](NC(=O)[C@H](Cc1ccccc1)NC(=O)[C@@H](NC(=O)[C@H](C)NC(=O)[C@H](CC(=O)O)NC(=O)[C@H](CO)NC(=O)[C@@H](N)Cc1c[nH]cn1)C(C)C)[C@@H](C)O)[C@@H](C)O)C(=O)N[C@@H](C)C(=O)N[C@H](C(=O)N[C@@H](CCCCN)C(=O)N[C@@H](CCCCN)C(=O)N[C@@H](Cc1ccc(O)cc1)C(=O)N[C@@H](CC(C)C)C(=O)N[C@@H](CC(N)=O)C(=O)N[C@@H](CO)C(=O)N[C@H](C(=O)N[C@@H](CC(C)C)C(=O)N[C@H](C(N)=O)[C@@H](C)O)C(C)C)C(C)C [(Lys^12, Lys^14, Nle^17, Val^26, Thn^28, (Lys^12, Lys^14, Nle^17, Val^26, Thr^28)VIP] (HELM PEPTIDE1{H.S.D.A.V.F.T.D.N.Y.T.K.L.K.K.Q.[Nle].A.V.K.K.Y.L.N.S.V.L.T.[am]}$$$$V2.0) | 7e-09 | 143 | 
